From patent publication US5101059A, “Amino acid protecting groups” (Research Corporation Technologies, Inc., priority 1989, dated 1992)

Experiments:
Assay type in all cases: physicochemical
[1] = Base deblocking and stability of 9-xanthenylmethyl and 9,10-dihydro-9-anthracenylmethyl derivatives; settings: room temperature
Method: 1. Deblocking of Xmoc-PCA in 1,5,9-Triazabicyclo[4,4,0]dec-5-ene Solution: To a solution of 7.90 mg (0.0216 mmol) of Xmoc-PCA in 0.6 mL of pyridine was added 0.15 g (1.078 mmol 50 eq.) of 1,5,9-triazabicyclo[4,4,0]dec-5-ene (TBD). The mixture was stirred at room temperature and monitored by TLC with an eluant consisting of Skelly B--EtOAc (3:1). Complete deblocking had occurred after 25 minutes.
2. Base Deblocking of 9-Xanthenylmethyl Phenylacetate: a. In Piperdine Solution: To a solution of 13.39 mg of 9-XM-phenylacetate in 1.6 mL of DMF was added 0.4 mL (100 eq.) of piperidine. The mixture was stirred at room temperature. […] In DBU Solution: To a solution of 6.36 mg of 9-XM-phenylacetate in 0.9 mL of DMF was added 0.3 mL of 1,8-diazabicyclo[5,4,0]-undec-7-ene (DBU) (100 eq.). The mixture was stirred at room temperature. […] In TBD Solution: To a solution of 7.91 mg of 9-XM-phenylacetate in 0.3 mL of pyridine was added 100 mg (30 eq.) of 1,5,9-triazabicyclo[4,4,0]dec-5-ene. The mixture was stirred at room temperature.
1. General Procedure for Studying the Stabilities of DHAmoc-PCA, Xmoc-PCA, and DC-Xmoc-PCA in Piperidine Solution To a solution of urethane (0.0294 mmol) in 1.2 mL of DMF was added 0.3 mL (2.94 mmol, 100 eq.) of piperidine. The mixture was stirred at room temperature and monitored by TLC with an eluant consisting of Skelly B--EtOAc (3:1). Evidence for initiation of the deblocking required 2 minutes for DC-Xmoc-PCA, 3.5 hours for Xmoc-PCA, and 7 hours for DHAmoc-PCA.
2. General Procedure for Studying the Deblocking of Xmoc-PCA and DHAmoc-PCA in DBU Solution: To a solution of urethane (0.0324 mmol) in 0.5 mL of DMF was added 0.5 mL (3.24 mmol, 100 eq.) of 1,8-diazabicyclo[5,4,0]undec-7-ene. The mixture was stirred at room temperature and monitored by TLC with the eluant consisting of Skelly B--EtOAc (3:1). The time needed to complete the deblocking was 3.5 hours for Xmoc-PCA, and 6 hours for DHAmoc-PCA.

[2] = Stability of xanthenylmethyl and dihydroanthracenylmethyl derivatives in trifluoroacetic acid; settings: TFA 40 eq., deuterated chloroform, room temperature, 3 days
Method: 3. Stability of Xanthenylmethyl p-Chlorocarbanilate in Trifluoroacetic Acid: To a solution of 35.61 mg of Xmoc-PCA in 0.2 mL of deuterated chloroform was added 0.3 mL (40 eq.) of trifluoroacetic acid. The mixture was transferred to an NMR tube and allowed to stand at room temperature. The reaction was monitored by NMR spectroscopy (Varian A-60A, 60 MHz) and TLC with an eluant consisting of Skelly B--ethyl acetate (4:1). No change was noted after 3 days.
4. Stability of 9-Xanthenylmethyl Phenylacetate in Trifluoroacetic Acid: To a solution of 21.4 mg of 9-XM phenylacetate in 0.2 mL of deuterated chloroform was added 0.2 mL (40 eq.) of trifluoroacetic acid. The mixture was transferred to an NMR tube and let stand at room temperature. The reaction was monitored by NMR (Varian A-60A, 60 MHz) spectroscopy and TLC analysis with an eluant consisting of Skelly B--ether (2:1). No change was noted after 3 days.
1. Stability of 9,10-Dihydro-9-anthracenylmethyl p-Chlorocarbanilate in Trifluoroacetic Acid: To a solution of 23.61 mg of DHAmoc-PCA in 0.2 mL of deuterated chloroform was added 0.2 mL (40 eq.) of trifluoroacetic acid. The mixture was transferred to an NMR tube and allowed to stand at room temperature. The reaction was monitored by NMR spectroscopy (Varian A-60A, 60 MHz) and TLC with an eluant consisting of Skelly B--EtOAc (3:1). No change was noted after 4 days.

[3] = Stability of substituted Fmoc-aniline to catalytic hydrogenation; settings: palladium on charcoal, hydrogen 1 atm, 20 hours
Method: 1. Deblocking of 2,7-Bistrimethyl-silyl)-9-fluorenylmethyl Carbanilate: To a solution of 0.2 g BTS-Fmoc-aniline in 15 mL of 100% ethanol and 15 mL of EtOAc was added 20 mg of 10% palladium on charcoal at 0° C. The heterogeneous mixture was stirred under a hydrogen atmosphere (1 atm) for 20 hours. The catalyst was filtered and rinsed with EtOAc (2×5 mL). The combined filtrate was washed with sat'd NH4 Cl (2×20 mL), water (20 mL), and dried over anhydrous MgSO4. After evaporating the solvent in vacuo, the residue (0.14 g) was recrystallized from 95% ethanol to afford 0.11 g (78.0%) of 2,7-bis(trimethylsilyl)-9-methylfluorene as white needles, m.p. 106.5°-108° C., identified by mixture melting point, IR, and NMR spectral comparison with an authentic sample obtained as described above.
2. Stability of 9-Trimethylsilyl-9-fluorenylmethyl Carbanilate Towards Catalytic Hydrogenation: To a mixture of 0.15 g of TMS-Fmoc-analine and 0.15 g of BTS-Fmoc-analine in 20 mL of ethyl acetate and 30 mL of 100% ethanol was added 30 mg of […] palladium on charcoal. The mixture was magnetically stirred at room temperature under a hydrogen atmosphere (1 atm) for 20 hours. The catalyst was removed by filtration and rinsed with EtOAc (2×5 mL). […] Recrystallization of the former from 95% ethanol gave 78.3 mg (74.1%) of the pure silane, m.p. 107°-108.5° C. […]

[4] = Stability of substituted Fmoc-PCA in acetic acid; settings: glacial acetic acid 10 eq., CH2Cl2, room temperature, 48 hours
Method: 2. […] The mixture was stirred at room temperature for 48 hours. […] The mixture was washed with half sat'd NaHCO3 (2×10 mL) and water (10 mL). […] 161°-163° C., the IR and ^1 H NMR spectra of which matched that of an authentic sample.
3. Stability of 9-Trimethylsilyl-9-[…] p-Chlorocarbanilate in Acetic Acid: To a solution of 0.37 g of TMS-Fmoc-PCA in 10 mL of CH2 Cl2 was added 0.5 mL (10 eq.) of glacial acetic acid. The mixture was stirred at room temperature. […] The mixture was washed with half sat'd NaHCO3 (2×10 mL) and H2 O (10 mL). […] 124°-126° C., the ^1 H NMR and IR spectra of which matched that of an authentic sample.

[5] = Solubility of TMS-Fmoc and dichloro-Xmoc derivatives versus Fmoc analogs; settings: in CH2Cl2
Method: This latter property is particularly important when peptide synthesis is carried out in solution.

[6] = Base deblocking of substituted urethanes (U-PCA) by various amines; settings: dichloromethane, room temperature
Description: 1. General Procedure for Studying the Base Deblocking of the Urethanes Fmoc-PCA, BTS-Fmoc-PCA, DT-Fmoc-PCA, and TMS-Fmoc-PCA: A mixture of urethane (0.05 mmol) in a solution prepared from an equal volume of base (2.5 mmol, 50 eq.) and dichloromethane was stirred at room temperature. The course of the reaction was monitored by TLC with an eluant consisting of Skelly B--ether (3:1).

[7] = Base deblocking of R-Fmoc-aniline by various amines; settings: room temperature
Method: 2. General Procedure for Studying the Base Deblocking of the Urethanes R-Fmoc-aniline (R=TMS, DMPS, DPMS, DT-TMS, TIPS): A solution of urethane (0.05 mmol) in a sample of redistilled base (5 mmol, 100 eq.) was allowed to stand at room temperature. The reaction was monitored periodically by TLC with an eluant consisting of Skelly B--CH2 Cl2 (1:1). No reaction occurred according to the TLC test for urethanes having R=TIPS in the case of any of the bases tested after 24 hours.

[8] = Deblocking of R-Fmoc-aniline by trifluoroacetic acid; settings: room temperature
Description: 1. General Procedure for Studying the stability of R-Fmoc-analine (R=TMS, DMPS, DPMS, DT-TMS, TIPS) in Trifluoroacetic Acid: To a solution of urethane (0.026 mmol) in […].) of trifluoroacetic acid. The mixture was stirred at room temperature and the course of the reaction was monitored by TLC with an eluant consisting of Skelly B--dichloromethane (1:1) to note the time needed for complete deblocking of the urethanes.

[9] = Deblocking of R-Fmoc-aniline by fluoride ion; settings: tetra-n-butylammonium chloride 3.0 eq., KF dihydrate 4.1 eq., acetonitrile, room temperature
Method: 3. General Procedure for Studying the Deblocking of Urethanes R-Fmoc-aniline (R=TMS, DMPS, DPMS, TIPS, DT-TMS) by Reaction with Fluoride Ion: To a solution of urethane (0.0513 mmol) in 0.7 mL of acetonitrile was added 45 mg (0.154 mmol, 3.0 eq.) of tetra-n-butyl-ammonium chloride and 20 mg (0.213 mmol, 4.1 eq.) of potassium fluoride dihydrate. The mixture was stirred at room temperature, the reaction being monitored by TLC with an eluant consisting of Skelly B--CH2 Cl2 (1:1).

[10] = Base deblocking of 9-xanthenylmethoxycarbonyl-L-phenylalanine; settings: room temperature
Method: A. Base Deblocking of 9-Xanthenylmethoxycarbonyl-L-phenylalanine: 1. In DBU Solution: To a solution of 13.08 mg of Xmoc-Phe-Oh in 0.5 mL of DMF was added 0.5 mL of 1,8-diazabicyclo[5,4,0]-undec-7-ene (DBU, 100 eq.). The mixture was stirred at room temperature. The reaction was monitored by TLC with an eluant consisting of CHCl3 --CH3 OH--CH3 CO2 H (9:1:0.1). Deblocking was complete after 36 hours. 2. In TBD Solution: To a solution of 7.25 mg of Xmoc-Phe-OH in 0.1 mL of pyridine and 0.1 mL of DMF was added 50 mg (20 eq.) of 1,5,9-triazabicyclo[4,4,0]dec-5-ene (TBD). The mixture was stirred at room temperature and monitored by TLC with an eluant consisting of CHCl3 --CH3 OH--CH3 CO2 H (9:1:0.1). Deblocking was complete after 4.5 hours.

[11] = Stability of 9-xanthenylmethyl carbanilate towards catalytic hydrogenolysis; settings: 5% Pd/C and palladium acetate, 40 psi hydrogen, 24 hours
Method: 5. Stability of 9-Xanthenylmethyl Carbanilate Towards Catalytic Hydrogenolysis: To a solution of 300 mg of Xmoc-aniline in 30 mL of EtOAc and 10 mL of 100% EtOH was added 30 mg of 5% palladium on charcoal and 30 mg of palladium acetate. The mixture was shaken under hydrogen at a pressure of 40 psi in a Parr apparatus for 24 hours. […] 178°-181° C., the ^1 H NMR and IR spectra of which matched that of an authentic sample.

O=C(Cc1ccccc1)OCC1c2ccccc2Oc2ccccc21 [9-XM-phenylacetate, 9-Xanthenylmethyl Phenylacetate]
Time for Complete Deblocking ([1]; DBU 100 eq., DMF): ≤ 90 min | Time for Complete Deblocking ([1]; TBD 30 eq., pyridine): ≤ 27 min | stability in piperidine solution (TLC) ([1]; piperidine 100 eq., DMF, 2 days): no change | stability in trifluoroacetic acid (NMR, TLC) [2]: No change

C[Si](C)(C)c1ccc2c(c1)C(COC(=O)Nc1ccccc1)c1cc([Si](C)(C)C)ccc1-2 [BTS-Fmoc-aniline, 2,7-Bis(trimethylsilyl)-9-fluorenylmethyl Carbanilate]
product of catalytic hydrogenation (deblocking) [3]: 2,7-bis(trimethylsilyl)-9-methylfluorene

C[Si](C)(C)C1(COC(=O)Nc2ccc(Cl)cc2)c2ccccc2-c2ccccc21 [TMS-Fmoc-PCA, 9-Trimethylsilyl-9-fluorenylmethyl p-Chlorocarbanilate]
recovered urethane [4]: 97.5% | stability in acetic acid (TLC) [4]: no change | solubility relative to that of the Fmoc analog [5]: 16 times | soluble to the extent of (solubility) [5]: 53 g/100 mL | Time for Complete Deblocking ([6]; ethanolamine 50 eq.): 150 min | Time for Complete Scavenging of Dibenzofulvene Analogs ([6]; morpholine 50 eq.): 16.5 hr | Time for Complete Deblocking ([6]; morpholine 50 eq., significant aminodibenzofulvene type adduct formed): 780 min | Time for Complete Scavenging of Dibenzofulvene Analogs ([6]; piperidine 50 eq.): 195 min | Time for Complete Deblocking ([6]; piperidine 50 eq., significant aminodibenzofulvene type adduct formed): 129 min | Time for Complete Deblocking ([6]; t-butylamine 50 eq.): > 2900 min

C[Si](C)(C)C1(COC(=O)Nc2ccccc2)c2ccccc2-c2ccccc21 [TMS-Fmoc-aniline, 9-Trimethylsilyl-9-fluorenylmethyl Carbanilate]
Time for Complete Deblocking ([7]; morpholine 100 eq.): 180 min | Time for Complete Scavenging of Dibenzofulvene ([7]; morpholine 100 eq.): 240 min | Time for Complete Deblocking ([7]; piperidine 100 eq.): 100 min | Time for Complete Scavenging of Dibenzofulvene ([7]; piperidine 100 eq.): 300 min | Time for Complete Deblocking ([7]; t-butylamine 100 eq.): 720 min | recovered urethane ([3]; room temperature): 93.3% | Time for Complete Deblocking by Trifluoroacetic Acid [8]: 5 h | Time for Complete Deblocking by Fluoride Ion [9]: 5 min

O=C(N[C@@H](Cc1ccccc1)C(=O)O)OCC1c2ccccc2Oc2ccccc21 [Xmoc-Phe-OH, 9-Xanthenylmethoxycarbonyl-L-phenylalanine]
Time for Complete Deblocking ([10]; DBU 100 eq., DMF): 36 h | Time for Complete Deblocking ([10]; TBD 20 eq., pyridine and DMF): 4.5 h

O=C(Nc1ccccc1)OCC1c2ccccc2Oc2ccccc21 [Xmoc-aniline, 9-Xanthenylmethyl Carbanilate]
recovered urethane [11]: 94.3% | stability towards catalytic hydrogenolysis (TLC) [11]: remained intact
